The values below come from ChEMBL document CHEMBL3259563, “The discovery of potent and selective non-steroidal glucocorticoid receptor modulators, suitable for inhalation” (Bioorg Med Chem Lett, 2014).

By inhibition in vivo is commonly meant the relative decrease from the control value, in per cent. As usually defined, the logD is the decadic logarithm of the distribution of all forms, ionised or not, between an organic phase and buffer at a given pH. Lower therefore signals a more hydrophilic compound. The pIC50 is the negative decadic logarithm of the IC50, by convention in mol/L. Broadly, the inhibition is the relative decrease from the control value, in per cent.

For data set [1], the system named is Mus musculus. Kind of data set: Antiinflammatory activity in mouse acute cigarette smoke model assessed as inhibition of neutrophil influx to broncho-alveolar lavage fluid at 300 ug/kg, administered intratracheally 30 mins prior to first cigarette smoke challenge every day for 4 days measured after 24 hrs post last cigarette smoke challenge relative to control. The settings on record: inhaled or nasal.

The nature of data set [2]: Lipophilicity, log D of the compound at pH 7.4. It is filed as physicochemical. Particulars: buffer.
Data set [3] addresses T1, Glucocorticoid receptor (Rattus norvegicus, UniProt P06536).
T1 sequence (P06536 whole entry): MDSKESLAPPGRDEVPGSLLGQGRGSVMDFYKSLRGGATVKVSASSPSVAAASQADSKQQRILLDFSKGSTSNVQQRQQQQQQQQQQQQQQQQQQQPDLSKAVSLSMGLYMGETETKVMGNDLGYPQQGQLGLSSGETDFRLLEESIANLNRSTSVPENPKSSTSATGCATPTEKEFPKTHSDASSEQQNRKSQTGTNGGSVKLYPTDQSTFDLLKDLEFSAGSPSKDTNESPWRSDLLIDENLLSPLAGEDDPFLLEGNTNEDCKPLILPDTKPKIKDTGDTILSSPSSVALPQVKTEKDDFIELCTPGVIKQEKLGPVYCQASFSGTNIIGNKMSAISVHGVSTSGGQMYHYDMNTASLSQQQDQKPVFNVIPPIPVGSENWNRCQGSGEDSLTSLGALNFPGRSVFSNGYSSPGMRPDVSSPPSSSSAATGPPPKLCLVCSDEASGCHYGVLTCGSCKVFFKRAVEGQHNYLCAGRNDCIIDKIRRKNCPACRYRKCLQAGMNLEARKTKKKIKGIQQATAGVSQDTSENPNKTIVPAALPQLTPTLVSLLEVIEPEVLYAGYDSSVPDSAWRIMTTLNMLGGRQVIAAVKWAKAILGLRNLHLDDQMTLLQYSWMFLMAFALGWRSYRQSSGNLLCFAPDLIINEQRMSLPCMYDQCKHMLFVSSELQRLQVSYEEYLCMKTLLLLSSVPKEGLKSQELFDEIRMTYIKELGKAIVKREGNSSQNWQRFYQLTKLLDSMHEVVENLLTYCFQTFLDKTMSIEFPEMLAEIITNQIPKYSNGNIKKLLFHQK
Put plainly: Agonist activity at glucocorticoid receptor in rat PBMC assessed as inhibition of LPS-stimulated TNF-alpha release.

Data set [4] concerns the target T2, Androgen receptor (Homo sapiens, UniProt P10275).
T2 sequence (P10275 whole entry): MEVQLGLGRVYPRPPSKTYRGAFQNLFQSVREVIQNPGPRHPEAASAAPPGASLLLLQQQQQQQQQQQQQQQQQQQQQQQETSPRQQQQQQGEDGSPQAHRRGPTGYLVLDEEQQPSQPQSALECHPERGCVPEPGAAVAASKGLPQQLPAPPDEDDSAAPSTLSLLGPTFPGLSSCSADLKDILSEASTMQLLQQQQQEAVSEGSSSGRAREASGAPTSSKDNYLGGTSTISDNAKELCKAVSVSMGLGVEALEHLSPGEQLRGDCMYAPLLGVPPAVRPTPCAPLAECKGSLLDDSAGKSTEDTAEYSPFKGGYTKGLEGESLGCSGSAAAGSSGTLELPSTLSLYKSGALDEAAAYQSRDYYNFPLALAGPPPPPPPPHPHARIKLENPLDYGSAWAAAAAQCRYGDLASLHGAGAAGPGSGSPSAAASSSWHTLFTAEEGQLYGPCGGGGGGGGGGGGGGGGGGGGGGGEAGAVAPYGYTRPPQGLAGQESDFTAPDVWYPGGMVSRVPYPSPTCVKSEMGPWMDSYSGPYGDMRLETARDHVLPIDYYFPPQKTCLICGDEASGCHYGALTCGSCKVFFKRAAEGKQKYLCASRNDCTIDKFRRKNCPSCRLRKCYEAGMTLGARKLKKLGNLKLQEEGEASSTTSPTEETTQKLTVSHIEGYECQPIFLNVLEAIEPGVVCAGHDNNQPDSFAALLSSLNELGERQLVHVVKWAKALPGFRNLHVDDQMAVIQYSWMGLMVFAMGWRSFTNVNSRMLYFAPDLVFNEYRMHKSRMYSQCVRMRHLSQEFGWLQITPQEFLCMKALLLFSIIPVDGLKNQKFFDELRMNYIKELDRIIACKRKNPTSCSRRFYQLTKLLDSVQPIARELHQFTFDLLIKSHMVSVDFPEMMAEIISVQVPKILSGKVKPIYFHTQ
Kind of data set: Binding affinity to androgen receptor (unknown origin).

The nature of data set [5]: Thermodynamic solubility of the crystalline compound in 0.1 M phosphate buffer at pH 7.4 at 25 degC after 24 hrs. The settings on record: read-out: Therm_solubility. It is filed as physicochemical.
In data set [6] the test system is Plasma. Kind of data set: Fraction unbound in human plasma. It is filed as ADME, cell-free.
In data set [7] the test system is Hepatocyte. Kind of data set: Intrinsic clearance in rat hepatocytes. It is filed as ADME, cell-based.
Data set [8] concerns Hepatocyte. Put plainly: Intrinsic clearance in human hepatocytes. It is filed as ADME, cell-based.
Data set [9] concerns the target Cytochrome P450 2D6 (Homo sapiens, UniProt P10635). Put plainly: Inhibition of CYP2D6 (unknown origin). It is filed as ADME.
The target of data set [10] is T3, Cytochrome P450 1A2 (Homo sapiens, UniProt P05177).
T3 sequence (P05177 whole entry): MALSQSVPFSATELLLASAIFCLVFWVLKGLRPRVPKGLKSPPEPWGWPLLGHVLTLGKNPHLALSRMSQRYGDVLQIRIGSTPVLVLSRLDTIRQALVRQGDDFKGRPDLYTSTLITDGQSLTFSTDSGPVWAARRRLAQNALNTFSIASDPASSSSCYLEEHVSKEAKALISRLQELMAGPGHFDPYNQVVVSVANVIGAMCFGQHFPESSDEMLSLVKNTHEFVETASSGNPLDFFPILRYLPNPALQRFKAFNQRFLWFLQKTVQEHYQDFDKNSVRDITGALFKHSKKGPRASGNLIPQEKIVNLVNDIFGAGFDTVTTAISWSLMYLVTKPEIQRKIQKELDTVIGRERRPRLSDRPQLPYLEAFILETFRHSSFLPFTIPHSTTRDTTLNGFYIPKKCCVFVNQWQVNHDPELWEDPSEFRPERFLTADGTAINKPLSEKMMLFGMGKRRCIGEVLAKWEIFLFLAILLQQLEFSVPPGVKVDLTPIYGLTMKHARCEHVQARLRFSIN
Kind of data set: Inhibition of CYP1A2 (unknown origin). It is filed as ADME.

The target in data set [11] is Cytochrome P450 2C19 (Homo sapiens, UniProt P33261). Put plainly: Inhibition of CYP2C19 (unknown origin). It is filed as ADME.
Chain of Cytochrome P450 2C19 (P33261 whole entry): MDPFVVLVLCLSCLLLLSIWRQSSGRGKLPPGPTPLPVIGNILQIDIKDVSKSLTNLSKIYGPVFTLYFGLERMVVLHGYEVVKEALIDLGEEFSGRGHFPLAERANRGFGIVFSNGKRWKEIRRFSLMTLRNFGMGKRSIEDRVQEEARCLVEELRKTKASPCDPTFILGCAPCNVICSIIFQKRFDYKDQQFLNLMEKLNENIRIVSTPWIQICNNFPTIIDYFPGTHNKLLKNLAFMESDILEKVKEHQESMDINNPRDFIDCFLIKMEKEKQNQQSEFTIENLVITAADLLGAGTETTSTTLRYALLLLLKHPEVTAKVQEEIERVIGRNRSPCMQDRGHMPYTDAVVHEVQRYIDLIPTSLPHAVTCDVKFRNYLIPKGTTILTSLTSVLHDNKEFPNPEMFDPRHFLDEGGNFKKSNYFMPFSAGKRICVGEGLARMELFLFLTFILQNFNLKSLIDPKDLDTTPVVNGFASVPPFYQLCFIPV
Data set [12] concerns the target Cytochrome P450 3A4 (Homo sapiens, UniProt P08684). Kind of data set: Inhibition of CYP3A4 (unknown origin). It is filed as ADME.
Data set [13] deals with Cytochrome P450 2C9 (Homo sapiens, UniProt P11712). Kind of data set: Inhibition of CYP2C9 (unknown origin). It is filed as ADME.
Chain of Cytochrome P450 2C9 (P11712 whole entry): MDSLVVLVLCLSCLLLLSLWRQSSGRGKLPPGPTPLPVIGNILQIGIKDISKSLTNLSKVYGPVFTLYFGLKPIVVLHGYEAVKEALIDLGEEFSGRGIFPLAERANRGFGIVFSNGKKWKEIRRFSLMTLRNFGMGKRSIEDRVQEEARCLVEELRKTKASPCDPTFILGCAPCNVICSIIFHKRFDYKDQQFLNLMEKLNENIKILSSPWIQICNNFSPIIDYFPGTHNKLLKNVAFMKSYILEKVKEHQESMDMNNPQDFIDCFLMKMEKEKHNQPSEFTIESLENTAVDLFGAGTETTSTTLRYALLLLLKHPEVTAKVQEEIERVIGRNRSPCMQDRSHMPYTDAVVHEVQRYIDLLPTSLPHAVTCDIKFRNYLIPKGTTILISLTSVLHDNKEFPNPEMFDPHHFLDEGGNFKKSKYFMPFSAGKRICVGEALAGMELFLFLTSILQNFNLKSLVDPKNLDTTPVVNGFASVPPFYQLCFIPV
The test system of data set [14] is Lung. Put plainly: Drug uptake in intratracheally dosed rat lung after 24 hrs. It is filed as ADME, organism-based. The settings on record: in vivo, inhaled_or_intranasal.
The subject of data set [15] is Rattus norvegicus. Put plainly: Antiinflammatory activity in rat assessed as inhibition of LPS-induced leukocyte influx to broncho-alveolar lavage fluid at 10 ug/kg, administered intratracheally 2 hrs prior to LPS challenge measured after 4 hrs relative to control. It is filed as functional. Particulars: inhaled or nasal.
The subject of data set [16] is Rattus norvegicus. Kind of data set: Antiinflammatory activity in rat assessed as inhibition of LPS-induced leukocyte influx to broncho-alveolar lavage fluid at 30 ug/kg, administered intratracheally 2 hrs prior to LPS challenge measured after 4 hrs relative to control. It is filed as functional. The settings on record: inhaled or nasal.
For data set [17], the system named is Rattus norvegicus. Put plainly: Antiinflammatory activity in rat assessed as inhibition of LPS-induced leukocyte influx to broncho-alveolar lavage fluid at 100 ug/kg, administered intratracheally 2 hrs prior to LPS challenge measured after 4 hrs relative to control. It is filed as functional. Particulars: inhaled or nasal.
Data set [18] deals with Rattus norvegicus. Kind of data set: Antiinflammatory activity in rat assessed as inhibition of LPS-induced lung edema at 10 ug/kg, administered intratracheally 2 hrs prior to LPS challenge measured after 4 hrs relative to control. The settings on record: inhaled or nasal. It is filed as functional.
Data set [19] has as its system Rattus norvegicus. Put plainly: Antiinflammatory activity in rat assessed as inhibition of LPS-induced lung edema at 30 ug/kg, administered intratracheally 2 hrs prior to LPS challenge measured after 4 hrs relative to control. It is filed as functional. Particulars: inhaled or nasal.
In data set [20] the test system is Rattus norvegicus. Put plainly: Antiinflammatory activity in rat assessed as inhibition of LPS-induced lung edema at 100 ug/kg, administered intratracheally 2 hrs prior to LPS challenge measured after 4 hrs relative to control. The settings on record: inhaled or nasal. It is filed as functional.
The nature of data set [21]: Thermodynamic solubility of the amorphous compound in 0.1 M phosphate buffer at pH 7.4 at 25 degC after 24 hrs. It is filed as physicochemical. The settings on record: read-out: Therm_solubility.
Data set [22] has as its target hERG (KCNH2) (Homo sapiens, UniProt Q12809). Kind of data set: Inhibition of human ERG channel at 50 uM.
The test system of data set [23] is Mus musculus. Kind of data set: Antiinflammatory activity in mouse acute cigarette smoke model assessed as inhibition of neutrophil influx to broncho-alveolar lavage fluid at 10 ug/kg, administered intratracheally 30 mins prior to first cigarette smoke challenge every day for 4 days measured after 24 hrs post last cigarette smoke challenge relative to control. The settings on record: inhaled or nasal.

The subject of data set [24] is Mus musculus. Put plainly: Antiinflammatory activity in mouse acute cigarette smoke model assessed as inhibition of neutrophil influx to broncho-alveolar lavage fluid at 30 ug/kg, administered intratracheally 30 mins prior to first cigarette smoke challenge every day for 4 days measured after 24 hrs post last cigarette smoke challenge relative to control. The settings on record: inhaled or nasal.

Data set [25] concerns Mus musculus. Put plainly: Antiinflammatory activity in mouse acute cigarette smoke model assessed as inhibition of neutrophil influx to broncho-alveolar lavage fluid at 100 ug/kg, administered intratracheally 30 mins prior to first cigarette smoke challenge every day for 4 days measured after 24 hrs post last cigarette smoke challenge relative to control. The settings on record: inhaled or nasal.

pIC50: −log10 of the molar value.

Chain of hERG (KCNH2) (Q12809 whole entry): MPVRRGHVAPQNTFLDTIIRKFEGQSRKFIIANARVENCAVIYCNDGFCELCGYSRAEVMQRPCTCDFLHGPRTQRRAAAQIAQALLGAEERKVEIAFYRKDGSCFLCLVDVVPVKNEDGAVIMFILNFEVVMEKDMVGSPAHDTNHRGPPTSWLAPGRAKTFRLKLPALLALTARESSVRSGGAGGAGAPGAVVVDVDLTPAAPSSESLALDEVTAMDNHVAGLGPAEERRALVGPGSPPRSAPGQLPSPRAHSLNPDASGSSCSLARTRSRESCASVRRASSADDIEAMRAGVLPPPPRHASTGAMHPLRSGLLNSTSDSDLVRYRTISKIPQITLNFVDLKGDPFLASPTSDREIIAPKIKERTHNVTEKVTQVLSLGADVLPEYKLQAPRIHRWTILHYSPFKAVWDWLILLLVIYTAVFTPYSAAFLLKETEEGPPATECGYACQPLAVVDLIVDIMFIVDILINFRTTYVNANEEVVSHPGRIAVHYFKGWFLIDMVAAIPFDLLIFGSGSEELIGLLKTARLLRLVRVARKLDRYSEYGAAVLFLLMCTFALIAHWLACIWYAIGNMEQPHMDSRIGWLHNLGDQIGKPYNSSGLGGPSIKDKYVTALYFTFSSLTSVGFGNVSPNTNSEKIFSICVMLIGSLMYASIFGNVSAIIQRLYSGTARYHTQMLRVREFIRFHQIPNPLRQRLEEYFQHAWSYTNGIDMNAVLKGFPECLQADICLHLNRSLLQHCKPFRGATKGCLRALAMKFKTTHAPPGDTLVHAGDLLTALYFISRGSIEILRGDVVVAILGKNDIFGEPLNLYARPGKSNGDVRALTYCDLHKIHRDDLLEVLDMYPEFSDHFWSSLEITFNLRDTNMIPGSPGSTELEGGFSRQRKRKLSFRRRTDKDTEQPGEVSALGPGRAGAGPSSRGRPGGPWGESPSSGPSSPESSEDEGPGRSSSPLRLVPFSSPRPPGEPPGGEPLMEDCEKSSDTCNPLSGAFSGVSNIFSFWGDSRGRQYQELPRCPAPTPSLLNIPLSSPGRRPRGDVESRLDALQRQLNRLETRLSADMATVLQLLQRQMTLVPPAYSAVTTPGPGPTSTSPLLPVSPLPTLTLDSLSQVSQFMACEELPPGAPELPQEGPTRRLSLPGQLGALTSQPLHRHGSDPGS
Chain of Cytochrome P450 2D6 (P10635 whole entry): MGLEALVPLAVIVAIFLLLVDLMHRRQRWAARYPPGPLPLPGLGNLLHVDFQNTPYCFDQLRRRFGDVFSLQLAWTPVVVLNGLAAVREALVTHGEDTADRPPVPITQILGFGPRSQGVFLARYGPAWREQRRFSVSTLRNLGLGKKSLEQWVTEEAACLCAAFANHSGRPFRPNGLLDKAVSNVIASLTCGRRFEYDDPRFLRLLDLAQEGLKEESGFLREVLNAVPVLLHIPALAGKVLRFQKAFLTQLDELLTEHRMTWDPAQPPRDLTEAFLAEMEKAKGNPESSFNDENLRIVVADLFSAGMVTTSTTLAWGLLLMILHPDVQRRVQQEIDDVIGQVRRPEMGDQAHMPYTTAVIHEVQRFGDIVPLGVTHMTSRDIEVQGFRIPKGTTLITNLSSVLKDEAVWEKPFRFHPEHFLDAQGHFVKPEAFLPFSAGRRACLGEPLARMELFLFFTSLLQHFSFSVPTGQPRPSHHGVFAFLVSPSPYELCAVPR
Chain of Cytochrome P450 3A4 (P08684 whole entry): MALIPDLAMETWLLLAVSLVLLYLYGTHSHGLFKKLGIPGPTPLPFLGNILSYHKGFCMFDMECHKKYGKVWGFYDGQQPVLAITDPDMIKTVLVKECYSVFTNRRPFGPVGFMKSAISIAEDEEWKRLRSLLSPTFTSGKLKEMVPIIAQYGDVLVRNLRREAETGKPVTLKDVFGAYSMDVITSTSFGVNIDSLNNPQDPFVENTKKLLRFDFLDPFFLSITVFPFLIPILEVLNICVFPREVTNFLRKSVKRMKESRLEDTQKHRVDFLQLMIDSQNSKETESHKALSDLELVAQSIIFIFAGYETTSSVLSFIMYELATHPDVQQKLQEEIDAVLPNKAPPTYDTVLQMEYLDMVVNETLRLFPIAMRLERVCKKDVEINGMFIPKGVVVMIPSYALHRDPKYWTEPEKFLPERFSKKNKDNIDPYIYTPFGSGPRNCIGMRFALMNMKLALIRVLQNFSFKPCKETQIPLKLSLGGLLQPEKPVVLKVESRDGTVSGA

Take `CCCC1O[C@@H]2C[C@H]3[C@@H]4CCC5=CC(=O)C=C[C@]5(C)[C@H]4[C@@H](O)C[C@]3(C)[C@]2(C(=O)CO)O1` (stereo not given in full) [BUDESONIDE]: the inhibition in vivo at 0.3 mg/kg in data set [1] was 38%.
`Cc1cc(C)c(S(=O)(=O)N[C@@H](C)CNc2cccc3c2cnn3-c2ccc(F)cc2)c(C)c1` showed a logD in data set [2] of 4.1. Besides, the pIC50 is 9.05 in data set [3]; below 6.00 in data set [4]; below 4.70 in [9]; below 4.70 in data set [10]; below 4.70 in data set [11]; 5.00 in [12]. In data set [13], this molecule gave a pIC50 of 5.10. Moreover, the solubility thermodynamic at 24 h is below 0.2 µM in [5] and below 0.43 µM in data set [21]. This molecule gave a Fu in data set [6] below 0.003%. Further, the CLH in [7] was 13 µL/min; in data set [8], 18 µL/min. In data set [14], this molecule returned a Drug uptake of 50%. For the same molecule, the results for the inhibition in vivo at 0.01 mg/kg in [15], in data set [18] and in data set [23] were 37%, 32% and 0%, respectively. Moreover, the inhibition in vivo at 0.03 mg/kg in data set [16] was found to be 90%; in data set [19], 42%; in data set [24], 36%. In addition, the figures for the inhibition in vivo at 0.1 mg/kg in data set [17], in [20] and in [25] were 85%, 56% and 23%, respectively. This molecule came in with an inhibition at 50 µM in [22] below 25%.
